Source: PubChem BioAssay AID248 (DTP/NCI, 2004)
Where “and” joins values, the source holds several entries; their conditions need not be identical. Equal entries are not always repeated. Toxic doses and inconclusive results are not listed. Cut-off read from the data, not from the text of the source: active = T/C of 150% or more; inactive = T/C below 125%.

System: L1210 leukemia ip in BDF1 mice, survival T/C
Assay: NCI In Vivo Anticancer Drug Screen. Data for tumor model L1210 Leukemia (intraperitoneal) in B6D2F1 (BDF1) mice
Conditions: endpoint: mean survival time, higher = longer survival
How it was run: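 Mice bearing the transplanted tumor received compound or vehicle. Survival of the treated group was divided by that of the vehicle-treated control group to give the ratio.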

[1] = dose: 100.0 mg/kg/injection, schedule: Q04DX002 (ip), vehicle: saline with Tween-80
[2] = dose: 200.0 mg/kg/injection, schedule: Q04DX002 (ip), vehicle: saline with Tween-80
[3] = dose: 100.0 mg/kg/injection, schedule: Q01DX009 (ip), vehicle: Klucel (hydroxypropylcellulose) (HPC)
[4] = dose: 100.0 mg/kg/injection, schedule: Q04DX003 (ip), vehicle: Klucel (hydroxypropylcellulose) (HPC)
[5] = dose: 200.0 mg/kg/injection, schedule: Q01DX009 (ip), vehicle: Klucel (hydroxypropylcellulose) (HPC)
[6] = dose: 200.0 mg/kg/injection, schedule: Q04DX003 (ip), vehicle: Klucel (hydroxypropylcellulose) (HPC)
[7] = dose: 400.0 mg/kg/injection, schedule: Q01DX009 (ip), vehicle: Klucel (hydroxypropylcellulose) (HPC)
[8] = dose: 400.0 mg/kg/injection, schedule: Q04DX003 (ip), vehicle: Klucel (hydroxypropylcellulose) (HPC)

Measured: T/C

O=C(Nc1c(Oc2ccc(Cl)cc2Cl)ccc(Cl)c1S(=O)(=O)O)Nc1c(Oc2ccc(Cl)cc2Cl)ccc(Cl)c1S(=O)(=O)O
inactive: dose: 50.0 mg/kg/injection, schedule: Q04DX003 (ip), vehicle: saline 101 % of control | dose: 100.0 mg/kg/injection, schedule: Q04DX003 (ip), vehicle: saline 97 % of control | dose: 200.0 mg/kg/injection, schedule: Q04DX003 (ip), vehicle: saline 95 % of control

CN(CCN1CCCCC1)C(=O)C(O)(c1ccccc1)C1CCCCC1 (stereo not drawn)
inactive: dose: 75.0 mg/kg/injection, schedule: Q01DX001 (ip), vehicle: saline 96 % of control | dose: 150.0 mg/kg/injection, schedule: Q01DX001 (ip), vehicle: saline 97 % of control

Oc1ccccc1C1CC2CCC1C2 (stereo not drawn)
inactive: dose: 50.0 mg/kg/injection, schedule: Q04DX002 (ip), vehicle: saline with Tween-80 106 % of control | dose: 100.0 mg/kg/injection, schedule: Q01DX009 (ip), vehicle: saline with Tween-80 107 % of control | [1] 103 % of control | [2] 100 % of control

CCCCOC(N)=O
inactive: dose: 50.0 mg/kg/injection, schedule: Q01DX001 (ip), vehicle: saline 105 % of control | dose: 100.0 mg/kg/injection, schedule: Q01DX001 (ip), vehicle: saline 95 % of control | dose: 100.0 mg/kg/injection, schedule: Q04DX003 (ip), vehicle: saline with Tween-80 95 % of control and 100 % of control | dose: 200.0 mg/kg/injection, schedule: Q01DX001 (ip), vehicle: saline 93 % of control | dose: 200.0 mg/kg/injection, schedule: Q04DX003 (ip), vehicle: saline with Tween-80 95 % of control and 97 % of control | dose: 400.0 mg/kg/injection, schedule: Q01DX001 (ip), vehicle: saline 98 % of control | dose: 400.0 mg/kg/injection, schedule: Q04DX003 (ip), vehicle: saline with Tween-80 97 % of control and 102 % of control

O=C1CC(C(=O)O)C2(CCCCC2)O1 (stereo not drawn)
inactive: [1] 104 % of control | [2] 101 % of control | dose: 400.0 mg/kg/injection, schedule: Q04DX002 (ip), vehicle: saline with Tween-80 101 % of control

CC1CN=C(c2ccc([N+](=O)[O-])cc2)S1 (stereo not drawn)
inactive: dose: 100.0 mg/kg/injection, schedule: Q01DX001 (ip), vehicle: Klucel (hydroxypropylcellulose) (HPC) 100 % of control | dose: 200.0 mg/kg/injection, schedule: Q01DX001 (ip), vehicle: Klucel (hydroxypropylcellulose) (HPC) 95 % of control | dose: 400.0 mg/kg/injection, schedule: Q01DX001 (ip), vehicle: Klucel (hydroxypropylcellulose) (HPC) 94 % of control

CNc1cc(N)ncn1
inactive: dose: 25.0 mg/kg/injection, schedule: Q01DX Z (ip), vehicle: saline 90 % of control | dose: 75.0 mg/kg/injection, schedule: Q01DX Z (ip), vehicle: saline 93 % of control

Cc1ccc(S(=O)(=O)N/N=C/N(C)C)cc1
inactive: [3] 91 % of control | [4] 102 % of control | [5] 98 % of control | [6] 103 % of control | [7] 96 % of control | [8] 97 % of control

CCN1/C(=C/C=C/C=C/c2sc3ccccc3[n+]2CC)Sc2ccccc21
inactive: dose: 0.04 mg/kg/injection, schedule: Q01DX009 (ip), vehicle: saline 110 % of control | dose: 0.08 mg/kg/injection, schedule: Q01DX009 (ip), vehicle: saline 93 % of control | dose: 0.09 mg/kg/injection, schedule: Q01DX009 (ip), vehicle: saline 117 % of control | dose: 0.09 mg/kg/injection, schedule: Q04DX003 (ip), vehicle: saline 102 % of control | dose: 0.19 mg/kg/injection, schedule: Q01DX009 (ip), vehicle: saline 122 % of control | dose: 0.19 mg/kg/injection, schedule: Q04DX002 (ip), vehicle: saline 102 % of control | dose: 0.19 mg/kg/injection, schedule: Q04DX003 (ip), vehicle: saline 102 % of control | dose: 0.32 mg/kg/injection, schedule: Q01DX009 (ip), vehicle: saline 88 % of control | dose: 0.37 mg/kg/injection, schedule: Q01DX001 (ip), vehicle: saline 95 % of control | dose: 0.38 mg/kg/injection, schedule: Q01DX009 (ip), vehicle: saline 96 % of control | dose: 0.38 mg/kg/injection, schedule: Q04DX002 (ip), vehicle: saline 103 % of control | dose: 0.38 mg/kg/injection, schedule: Q04DX003 (ip), vehicle: saline 105 % of control | dose: 0.39 mg/kg/injection, schedule: Q01DX009 (ip), vehicle: saline 109 % of control | dose: 0.62 mg/kg/injection, schedule: Q01DX001 (ip), vehicle: other 105 % of control | dose: 0.75 mg/kg/injection, schedule: Q01DX001 (ip), vehicle: saline 102 % of control | dose: 0.76 mg/kg/injection, schedule: Q04DX002 (ip), vehicle: saline 107 % of control | dose: 0.76 mg/kg/injection, schedule: Q04DX003 (ip), vehicle: saline 103 % of control | dose: 0.8 mg/kg/injection, schedule: Q01DX001 (ip), vehicle: saline 105 % of control | dose: 1.25 mg/kg/injection, schedule: Q01DX001 (ip), vehicle: other 110 % of control | dose: 1.5 mg/kg/injection, schedule: Q01DX001 (ip), vehicle: saline 105 % of control | dose: 1.5 mg/kg/injection, schedule: Q04DX002 (ip), vehicle: saline 110 % of control | dose: 2.5 mg/kg/injection, schedule: Q01DX001 (ip), vehicle: other 115 % of control | dose: 3.0 mg/kg/injection, schedule: Q01DX001 (ip), vehicle: saline 110 % of control | dose: 5.0 mg/kg/injection, schedule: Q01DX001 (ip), vehicle: other 107 % of control

Nc1ccccc1-n1cccc1
inactive: dose: 100.0 mg/kg/injection, schedule: Q04DX003 (ip), vehicle: other 100 % of control | dose: 200.0 mg/kg/injection, schedule: Q04DX003 (ip), vehicle: other 113 % of control | dose: 400.0 mg/kg/injection, schedule: Q04DX003 (ip), vehicle: other 100 % of control

[N-]=[N+]=Nc1cccc[n+]1[O-]
inactive: [4] 105 % of control | [6] 109 % of control | [8] 105 % of control

O=C1CCCC/C1=C/c1ccccc1Cl
inactive: [3] 97 % of control | [4] 104 % of control | [5] 105 % of control | [6] 104 % of control | [7] 100 % of control | [8] 97 % of control

CC1(C)N=C(N)N=C(N)N1c1cccc(CCCCc2ccc(Cl)cc2Cl)c1
inactive: dose: 5.0 mg/kg/injection, schedule: Q01DX001 (ip), vehicle: saline 94 % of control | dose: 6.25 mg/kg/injection, schedule: Q04DX003 (ip), vehicle: saline with Tween-80 98 % of control | dose: 10.0 mg/kg/injection, schedule: Q01DX001 (ip), vehicle: saline 100 % of control | dose: 12.5 mg/kg/injection, schedule: Q04DX003 (ip), vehicle: saline with Tween-80 93 % of control | dose: 20.0 mg/kg/injection, schedule: Q01DX001 (ip), vehicle: saline 100 % of control | dose: 25.0 mg/kg/injection, schedule: Q04DX003 (ip), vehicle: Klucel (hydroxypropylcellulose) (HPC) 101 % of control | dose: 25.0 mg/kg/injection, schedule: Q04DX003 (ip), vehicle: saline with Tween-80 98 % of control | dose: 50.0 mg/kg/injection, schedule: Q04DX003 (ip), vehicle: Klucel (hydroxypropylcellulose) (HPC) 100 % of control | [4] 93 % of control

CC(=O)OC1CCC2(C)C(=CCC3C2CCC2(C)C3CC(SCC(=O)O)C2SCC(=O)O)C1 (stereo not drawn)
inactive: dose: 100.0 mg/kg/injection, schedule: Q04DX003 (sc), vehicle: steriod suspending solution 98 % of control | dose: 200.0 mg/kg/injection, schedule: Q04DX003 (sc), vehicle: steriod suspending solution 106 % of control | dose: 400.0 mg/kg/injection, schedule: Q04DX003 (sc), vehicle: steriod suspending solution 106 % of control
